Among the data in US20240358015A1, “HERBICIDAL COMPOSITIONS” (Agrematch Ltd., priority 2021, published 2024) are Herbicidal activity score values, retold here.

For the test, the system named is Resistant A. rudis (target-site resistant to HRAC class 5). In words: Net-house assay with resistant weeds (Example 9). In kind it is in vivo, Amaranthus rudis. As to conditions: 1,500 g/ha, 13 days after application, scale 0-100. Here is the method:
Herbicidal activity of Compound 1 was determined by post-emergence application in both Growth-chamber and Net-house conditions. Growing conditions were as described in Examples 6 and 8 above.
The assay was performed on 13-15 day old plants (weeds) of Amaranthus rudis that were either target-site resistant or sensitive to HRAC class 5. In each treatment, 3 pots (8×12 cm), containing about 6 Amaranthus Rudis plants, were sprayed using a VL-SET Paasche Airbrush with a 1 ml-solution.
Damage assessment: Herbicidal activity was assessed and scored 13 days after application by visual inspection of the plants in comparison to plants treated with the formulation alone (with no active ingredient) as control. Activity score is in the range of 0 to 100, where 0 represents no herbicidal activity like control plants and 100 represents the maximal herbicidal activity (i.e., total death of the plant).

In turn, `O=C(O)c1cc(O)c2c(c1)C(=O)c1cccc(O)c1C2=O` [Compound 1, Rhein] registered a Herbicidal activity score of 100.
